Measurements as given in the OligoGym collection.
Where “and” joins values, the source holds several entries; their conditions need not be identical. Equal values may be shown once. After the bases stand the sugars from the 5' end (letter, count) and the backbone: PS all phosphorothioate, else s phosphorothioate and o phosphodiester by linkage. Methylation of C is not given here. e = 2'-O-(2-methoxyethyl) (MOE); k = constrained ethyl (cEt); d = 2'-deoxy (DNA)

Target: APOL1
Settings: ASO

Row | Sequence | target mRNA inhibition (A431, 0.0625 µM) | target mRNA inhibition (A431, 0.25 µM) | target mRNA inhibition (A431, 1 µM) | target mRNA inhibition (A431, 2 µM) | also measured
1 | AGTCATTAGTGCTATA (sugars k4 d9 k3, PS) | 57% | 78% | 88% |  | 
2 | AGTTTCATATTCACCC (sugars k4 d9 k3, PS) | 58% | 83% | 94% |  | 
3 | AGTTTTGTAAGTGCAA (sugars k2 d4 e4 k2 d4, PS) | 23% | 80% | 91% | 94% | target mRNA inhibition (A431, 0.0156 µM): 4%
4 | AGTTTTGTAAGTGCAA (sugars kkddddkekekkdddd, PS) |  |  |  | 84% | 
5 | ATATCAGATGGGTACT (sugars kkkddddkekekdddd, PS) |  |  |  | 28% | 
6 | ATCAGATGGGTACTTC (sugars k3 d4 k3 e1 d5, PS) |  |  |  | 88% | 
7 | ATCAGATGGGTACTTC (sugars k4 d9 k3, PS) | 53% | 78% | 89% |  | 
8 | ATCAGATGGGTACTTC (sugars kkddddkekekddddd, PS) |  |  |  | 66% | 
9 | ATGCGGTACTGACTGA (sugars k4 d9 k3, PS) | 49% | 69% | 88% |  | 
10 | ATGCTAATTTTCTGAC (sugars k2 d4 e3 k2 d5, PS) |  |  |  | 88% | 
11 | ATGCTAATTTTCTGAC (sugars kkddddkekekddddd, PS) | 59% | 84% | 93% | 97% | target mRNA inhibition (A431, 0.0156 µM): 25%
12 | ATGTCTCAAACTCCAC (sugars k4 d9 k3, PS) | 29% | 63% | 83% |  | 
13 | ATTCAGAATTTCCACT (sugars k2 d4 e3 k2 d5, PS) |  |  |  | 77% | 
14 | ATTCAGAATTTCCACT (sugars kkdddddkekeddddd, PS) |  |  |  | 88% | 
15 | ATTCAGAATTTCCACT (sugars kkddddekekeddddd, PS) |  |  |  | 87% | 
16 | ATTCTATTAGAGGGCT (sugars k2 d4 e3 k2 d5, PS) |  |  |  | 70% | 
17 | ATTCTATTAGAGGGCT (sugars kdddddkekekddddd, PS) |  |  |  | 45% | 
18 | ATTCTATTAGAGGGCT (sugars kkddddkekekkdddd, PS) |  |  |  | 34% | 
19 | ATTCTCATGGTACAGG (sugars k2 d4 e3 k2 d5, PS) | 34% | 72% | 90% | 92% | target mRNA inhibition (A431, 0.0156 µM): 13%
20 | ATTCTCATGGTACAGG (sugars kdddddkekekddddd, PS) |  |  |  | 83% | 
21 | ATTCTCATGGTACAGG (sugars kkddddkdkdkddddd, PS) |  |  |  | 84% | 
22 | ATTCTCATGGTACAGG (sugars kkkddddkdkdkdddd, PS) |  |  |  | 81% | 
23 | ATTCTGTGTGCTCACT (sugars k4 d9 k3, PS) | 65% | 80% | 92% |  | 
24 | ATTGGCTCAGTGACCC (sugars k4 d9 k3, PS) |  | 72% and 76% | 88% and 86% |  | 
25 | ATTTCTTGATGTGGTG (sugars kkddddkekekkdddd, PS) |  |  |  | 69% | 
26 | CAAGGTTGTCCAGAGC (sugars k4 d9 k3, PS) | 31% | 58% | 64% |  | 
27 | CACATCATTGGGTTAT (sugars k2 d4 e3 k2 d5, PS) |  |  |  | 86% | 

Row | Sequence | target mRNA inhibition (A431, 0.0625 µM) | target mRNA inhibition (A431, 0.25 µM) | target mRNA inhibition (A431, 1 µM) | target mRNA inhibition (A431, 2 µM) | also measured
28 | CACATCATTGGGTTAT (sugars kkddddkdkdkddddd, PS) |  |  |  | 79% | 
29 | CACCTGTTCACCGCTT (sugars k4 d9 k3, PS) | 41% | 67% | 87% |  | 
30 | CACTTGAGTCATTTGC (sugars k4 d9 k3, PS) | 37% | 73% | 86% |  | 
31 | CACTTTACATGCACGA (sugars k4 d9 k3, PS) | 26% | 65% | 85% |  | 
32 | CACTTTATACCAGTGT (sugars kkddddekekeddddd, PS) |  |  |  | 0% | 
33 | CAGTTCCCATTTTTCC (sugars k4 d9 k3, PS) | 62% | 83% | 94% |  | 
34 | CAGTTTTGTAAGTGCA (sugars k3 d4 k3 e1 d5, PS) |  |  |  | 92% | 
35 | CAGTTTTGTAAGTGCA (sugars k3 d5 k3 d5, PS) |  |  |  | 97% | 
36 | CAGTTTTGTAAGTGCA (sugars kkddddekekeddddd, PS) |  |  |  | 91% | 
37 | CAGTTTTGTAAGTGCA (sugars kkddddkekekddddd, PS) |  |  |  | 91% | 
38 | CAGTTTTGTAAGTGCA (sugars kkddddkekekkdddd, PS) |  |  |  | 18% | 
39 | CATTCAGAATTTCCAC (sugars k3 d5 k3 d5, PS) |  |  |  | 94% | 
40 | CATTCAGAATTTCCAC (sugars kdddddkekekddddd, PS) |  |  |  | 67% | 
41 | CATTCAGAATTTCCAC (sugars kkdddddkekeddddd, PS) |  |  |  | 84% | 
42 | CATTCAGAATTTCCAC (sugars kkddddkdkdkddddd, PS) |  |  |  | 84% | 
43 | CATTCAGAATTTCCAC (sugars kkkddddkdkdkdddd, PS) |  |  |  | 88% | 
44 | CATTCAGAATTTCCAC (sugars kkkddddkekekdddd, PS) |  |  |  | 65% | 
45 | CCACATTTGAGATTAT (sugars k4 d9 k3, PS) | 37% | 72% | 90% |  | 
46 | CCAGCAAAGACAAGAA (sugars k4 d9 k3, PS) | 9% and 0% | 49% and 30% | 64% and 55% and 50% |  | 
47 | CCCCTGCCAGGCATAT (sugars k4 d9 k3, PS) | 22% | 42% | 44% |  | 
48 | CCTTAATGTAAATTCC (sugars k4 d9 k3, PS) | 32% | 61% | 80% |  | 
49 | CCTTACTGCAGTTTCA (sugars k4 d9 k3, PS) | 47% | 79% | 91% |  | 
50 | CGATTGTCTTGTTTTT (sugars k4 d9 k3, PS) | 70% and 79% | 90% and 88% | 97% and 94% |  | 
51 | CGCAATGCTGACTTGG (sugars k2 d4 e4 k2 d4, PS) |  |  |  | 68% | 
52 | CGTCAATATATTCTTT (sugars k2 d4 e3 k2 d5, PS) |  |  |  | 81% | 
53 | CGTCAATATATTCTTT (sugars k3 d5 k3 d5, PS) | 56% and 62% | 84% and 87% | 93% | 94% | target mRNA inhibition (A431, 0.0156 µM): 38%
54 | CGTCAATATATTCTTT (sugars kddddkekekeddddd, PS) | 46% | 78% | 90% | 96% | target mRNA inhibition (A431, 0.0156 µM): 0%

Row | Sequence | target mRNA inhibition (A431, 0.0625 µM) | target mRNA inhibition (A431, 0.25 µM) | target mRNA inhibition (A431, 1 µM) | target mRNA inhibition (A431, 2 µM) | also measured
55 | CGTCAATATATTCTTT (sugars kekddddeekkddddd, PS) |  |  |  | 93% | 
56 | CGTCAATATATTCTTT (sugars kkddddkekekkdddd, PS) | 36% | 70% | 88% | 95% | target mRNA inhibition (A431, 0.0156 µM): 3%
57 | CGTGTTATATTTGATC (sugars kkddddkekekddddd, PS) |  |  |  | 88% | 
58 | CTAATTTTCTGACTGT (sugars k3 d4 k3 e1 d5, PS) | 69% | 88% | 99% and 96% | 99% | target mRNA inhibition (A431, 0.0156 µM): 35%; target mRNA inhibition (A431, 0.04 µM): 59%
59 | CTAATTTTCTGACTGT (sugars kkddddkekekddddd, PS) |  |  |  | 83% | 
60 | CTGTTCTAACTCTTGG (sugars k2 d4 e3 k2 d5, PS) |  |  |  | 93% | 
61 | CTGTTCTAACTCTTGG (sugars kkkddddkekekdddd, PS) |  |  |  | 88% | 
62 | CTTGTTTTATGGAGTC (sugars k4 d9 k3, PS) | 85% and 91% | 97% | 99% |  | 
63 | CTTTAAACTCAGGTGA (sugars k2 d4 e3 k2 d5, PS) | 40% | 61% | 85% | 92% | target mRNA inhibition (A431, 0.0156 µM): 19%
64 | CTTTAAACTCAGGTGA (sugars kdddddkekekddddd, PS) |  |  |  | 77% | 
65 | CTTTAAACTCAGGTGA (sugars kkddddekekeddddd, PS) |  |  |  | 91% | 
66 | CTTTAAACTCAGGTGA (sugars kkddddkekekddddd, PS) |  |  |  | 82% | 
67 | CTTTATACCAGTGTCT (sugars k3 d4 k3 e1 d5, PS) | 54% | 78% | 91% | 95% | target mRNA inhibition (A431, 0.0156 µM): 19%
68 | CTTTATACCAGTGTCT (sugars kdddddkekekddddd, PS) |  |  |  | 89% | 
69 | CTTTATACCAGTGTCT (sugars kddddkekekeddddd, PS) |  |  |  | 92% | 
70 | CTTTATACCAGTGTCT (sugars kkddddkekekkdddd, PS) |  |  |  | 87% | 
71 | CTTTATACCAGTGTCT (sugars kkkddddkekeddddd, PS) |  |  |  | 94% | 
72 | CTTTATACCAGTGTCT (sugars kkkddddkekekdddd, PS) |  |  |  | 76% | 
73 | GAAAATATCAGAGTGT (sugars k4 d9 k3, PS) | 29% | 68% | 90% |  | 
74 | GAACGCAATGCTGACT (sugars kkddddkekekddddd, PS) |  |  |  | 78% | 
75 | GAAGATTGGCTCTGGC (sugars kdddddkekekddddd, PS) |  |  |  | 44% | 
76 | GAAGATTGGCTCTGGC (sugars kkdddddkekeddddd, PS) |  |  |  | 70% | 
77 | GAAGATTGGCTCTGGC (sugars kkddddkdkdkddddd, PS) |  |  |  | 79% | 
78 | GAAGCTTTAAACTCAG (sugars k4 d9 k3, PS) | 41% | 65% | 82% |  | 
79 | GAAGCTTTAAACTCAG (sugars kkddddekekeddddd, PS) |  |  |  | 62% | 
